Data as given in patent US20250066300A1, “3-(2-(DIMETHYLAMINO)ETHYL)-1H-INDOL-4-yl OLIGOMERIC DERIVATIVES” (priority 2023, published 2025).

Test: Psilocin conversion in the dose formulation (HPLC-MS/MS)
Assay type: physicochemical
Settings: saline formulation, final pH 6.3, aliquots stored at −80° C. until analysis
Description: Compounds: Compound 122 was dissolved in saline (1.3 mg/kg) and adjusted to pH 7.4 for SC administration to the neck scruff at a dosing volume of 5 mL/kg. The final pH was checked prior to dosing, and found to be pH 6.3. This dose was selected as it delivered 0.72 mg/kg psilocin (assuming 100% conversion of the pro-drug). Aliquots of the formulation was additionally collected and stored at −80° C. until analysis by high performance liquid chromatography with tandem mass spectrometry (HPLC-MS/MS) to confirm dosing of compound 122 and minimal conversion to psilocin pre-dose (<2.5%).
[…]. Three aliquots from the dose formulations were diluted to a nominal concentration of 5 μg/mL, and injected in triplicate into the HPLC-MS/MS. The relative percentage of the psilocin peak in the dose formulation compared to the psilocin standard peak at 5 μg/mL, was used to assess for psilocin conversion in the dosing formulations.

## CN(C)CCc1c[nH]c2cccc(OC(=O)CCCC(=O)Oc3cccc4[nH]cc(CCN(C)C)c34)c12 [Compound 122, bis(3-(2-(dimethylamino)ethyl)-1H-indol-4-yl) glutarate]
  conversion to psilocin pre-dose in dose formulation: < 2.5%
